The target of assay [1] is T1, Pim-1 stably transfected into the U2OS human osteogenic sarcoma line (Homo sapiens, UniProt P11309).
T1 construct: expressed in transfected cells; host or cells: U2OS human osteogenic sarcoma line
In words: Pim cell assay, phospho-BAD normalized against total BAD, U2OS stably transfected with Pim-1. In kind it is cell-based. The protocol: (§1) The cell lines used in the assay were generated by the stable transfection of either Pim-1 or Pim-2 into the U2OS human osteogenic sarcoma line. The assay for determination of the Pim activity in the engineered U2OS cell lines measures levels of phospho-BAD normalized against total BAD protein levels. It was conducted as follows:
(§2) The adherent cells were dissociated from the flasks using non-enzymatic cell dissociation solution (Sigma # C5914). […] The cells were then incubated overnight at 37° C., 5% CO2.
(§3) In addition to the 10-point dosing curve of the test compound, DMSO alone was run as the high control.
(§4) This dilution in DMSO was then diluted again into cell growth medium. Aliquots (12 uL) of the compound diluted in growth medium were then transferred to the appropriate wells of the 96-well plates containing cells to yield a final DMSO concentration of 0.3%.
(§5) The cell plates containing lysis buffer were then immediately stored at −70° C.
(§6) These prepared lysates were then assayed for phospho and total BAD according to the manufacturer's protocols (Meso Scale Diagnostics, Cat# K15103C-3 & # K15103D-3). The plates were read on the MSD Sector Imager 6000, and results were calculated according to the assay protocols ((% Phosphoprotein=((2×Phospho signal)/(Phospho signal+Total signal))×100)).

In assay [2] the target is T2, full length recombinant Pim-1 protein (Homo sapiens, UniProt P11309).
T2 construct: by full length recombinant Pim-1, Pim-2, or Pim-3 protein; hexahistidine tag followed by a thrombin cleavage site (N); made in house; host or cells: Sf9 (baculovirus) or E. coli (pET28)
In words: Pim-1 enzyme assay (HTRF, phosphorylation of biotinylated-BAD (S112) peptide). In kind it is biochemical. The settings on record: read-out: Pim_1_IC50. Put shortly:
(§7)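 Kinase: full-length human Pim-1/Pim-2, His6-thrombin tagged. Substrate biotin-BAD (S112) peptide. Buffer 60 mM Hepes pH 7.0, 0.05% BSA, 2 mM DTT. Stop 3 mM EDTA. Detection HTRF (Eu anti-pBAD/SA-APC). IC50 by 4-parameter logistic on POC.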
A general note: TR-FRET usually uses a lanthanide donor and a delayed reading to cut background.

The target in assay [3] is T3, full length recombinant Pim-2 protein (Homo sapiens, UniProt Q9P1W9).
T3 construct: by full length recombinant Pim-1, Pim-2, or Pim-3 protein; hexahistidine tag followed by a thrombin cleavage site (N); made in house; host or cells: Sf9 (baculovirus) or E. coli (pET28)
In words: Pim-2 enzyme assay (HTRF, phosphorylation of biotinylated-BAD (S112) peptide). In kind it is biochemical. The conditions noted are these: read-out: Pim2_IC50. Put shortly: as §7

Assay [4] addresses T4, Pim-2 stably transfected into the U2OS human osteogenic sarcoma line (Homo sapiens, UniProt Q9P1W9).
T4 construct: expressed in transfected cells; host or cells: U2OS human osteogenic sarcoma line
Kind of assay: Pim cell assay, phospho-BAD normalized against total BAD, U2OS stably transfected with Pim-2. In kind it is cell-based. The protocol: as §1, §2, §3, §4, §5, §6

Setting [5] is: U2OS stably transfected with Pim-1, phospho-BAD normalized against total BAD, 29 min incubation, read-out: Pim1_Cell_IC50_.
[6] abbreviates: U2OS stably transfected with Pim-2, phospho-BAD normalized against total BAD, 29 min incubation, read-out: Pim2_Cell_IC50_.
[7] abbreviates: U2OS cells stably transfected with Pim-1, phospho-BAD, high dose […], read-out: Pim1_Cell_IC50.
Setting [8] is: U2OS cells stably transfected with Pim-2, phospho-BAD, high dose […], read-out: Pim2_Cell_IC50.

Where two headings read alike, the source gives them in different places. A value given as a limit tells only on which side of the number the result lay.

T1 sequence (P11309 whole entry): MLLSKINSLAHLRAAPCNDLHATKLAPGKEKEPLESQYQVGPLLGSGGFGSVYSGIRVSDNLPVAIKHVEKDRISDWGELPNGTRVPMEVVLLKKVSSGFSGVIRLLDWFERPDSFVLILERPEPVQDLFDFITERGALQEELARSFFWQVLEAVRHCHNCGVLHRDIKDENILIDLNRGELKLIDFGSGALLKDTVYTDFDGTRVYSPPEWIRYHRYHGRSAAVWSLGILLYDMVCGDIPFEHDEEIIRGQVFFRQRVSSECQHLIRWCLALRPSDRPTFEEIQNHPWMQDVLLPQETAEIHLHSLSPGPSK
T2 sequence (P11309 whole entry): as above
T4 sequence (Q9P1W9 whole entry): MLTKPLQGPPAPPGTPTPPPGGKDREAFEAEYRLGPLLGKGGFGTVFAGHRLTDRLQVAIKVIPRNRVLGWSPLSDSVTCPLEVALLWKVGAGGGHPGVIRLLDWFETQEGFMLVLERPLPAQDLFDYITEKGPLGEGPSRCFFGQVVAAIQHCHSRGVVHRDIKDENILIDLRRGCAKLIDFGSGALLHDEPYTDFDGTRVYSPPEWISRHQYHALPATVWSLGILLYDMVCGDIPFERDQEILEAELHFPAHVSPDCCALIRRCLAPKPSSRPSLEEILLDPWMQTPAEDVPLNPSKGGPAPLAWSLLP
T3 sequence (Q9P1W9 whole entry): as above

Regarding `Fc1cccc(F)c1-c1ccc2[nH]nc(-c3cncc(SC4CCCNC4)n3)c2c1` (single isomer, unassigned) [Example 414], the figures for the IC50 in assay [1] (setting [5]), in assay [2] and in assay [3] were 1540 nM, 7 nM and 60 nM, respectively.

As to `CC1CCNCC1Oc1cncc(-c2n[nH]c3ccc(-c4c(F)cccc4F)cc23)n1` (single isomer, unassigned) [Example 423], the IC50 was 1660 nM in assay [1] (setting [5]), > 31.6 µM in assay [4] (setting [6]), 17 nM in assay [2] and 194 nM in assay [3].

For the compound `CC1(C)CNCCC1Oc1cncc(-c2n[nH]c3ccc(-c4c(F)cccc4F)cc23)n1` (single isomer, unassigned) [Example 432], the IC50 is 2410 nM in assay [1] (setting [5]), > 31.6 µM in assay [4] (setting [6]), 20 nM in assay [2] and 114 nM in assay [3].

Regarding `CC1(C)CNCCC1Oc1cncc(-c2n[nH]c3ccc(-c4c(F)cccc4F)cc23)n1` (single isomer, unassigned) [Example 433], the IC50 is 801 nM in assay [1] (setting [5]), > 10 µM in assay [4] (setting [6]), 2 nM in assay [2] and 22 nM in assay [3].

In the case of `CC(C)Oc1cncc(-c2ccc3[nH]nc(-c4cncc(N5CCC(N)CC5)n4)c3c2)n1` [Example 5, 1-(6-(5-(6-isopropoxypyrazin-2-yl)-1H-indazol-3-yl)pyrazin-2-yl)piperidin-4-amine], the IC50 came to 45 nM in assay [1] (setting [7]); 5.44 µM in assay [4] (setting [8]); 16 nM in assay [3] (enzyme assay, Pim-2).

As for `NC1CCN(c2cncc(-c3n[nH]c4ccc(-c5cnc6[nH]nc(C(F)(F)F)c6c5)cc34)n2)CC1` [Example 6, 1-(6-(5-(3-(trifluoromethyl)-1H-pyrazolo[3,4-b]pyridin-5-yl)-1H-indazol-3-yl)pyrazin-2-yl)piperidin-4-amine], the IC50 in assay [1] (setting [7]) is 1880 nM; in assay [4] (setting [8]), > 31.6 µM; in assay [2] (enzyme assay, Pim-1) it was 1 nM; in assay [3] (enzyme assay, Pim-2), 35 nM.

For `Nc1cnnc(-c2ccc3[nH]nc(-c4cncc(N5CCC(N)CC5)n4)c3c2)c1` [Example 104, 6-(3-(6-(4-amino-1-piperidinyl)-2-pyrazinyl)-1H-indazol-5-yl)-4-pyridazinamine], the IC50 in assay [1] (setting [7]) is 1920 nM; in assay [4] (setting [8]), > 31.6 µM; in assay [3] (enzyme assay, Pim-2), 1 nM.

With `NC1CCN(c2cncc(-c3n[nH]c4ccc(-c5cncc(C6CC6)n5)cc34)n2)CC1` [Example 109, 1-(6-(5-(6-cyclopropyl-2-pyrazinyl)-1H-indazol-3-yl)-2-pyrazinyl)-4-piperidinamine], the IC50 was found to be 1.73 µM in assay [4] (setting [8]) and 2 nM in assay [3] (enzyme assay, Pim-2).

Turning to `c1cc2[nH]nc(-c3cncc(N[C@@H]4CCCNC4)n3)c2cc1-c1cncc(C2CC2)n1` [Example 243, 6-(5-(6-cyclopropyl-2-pyrazinyl)-1H-indazol-3-yl)-N-((3R)-3-piperidinyl)-2-pyrazinamine], the IC50 in assay [1] (setting [5]) amounted to 99 nM; in assay [4] (setting [6]), 5.59 µM; in assay [3], 8 nM.

`O=c1cc(-c2c[nH]c3ccc(-c4c(F)cccc4F)cc23)nc(N[C@@H]2CCCNC2)[nH]1` [Example 279, (R)-6-(5-(2,6-difluorophenyl)-1H-indol-3-yl)-2-(piperidin-3-ylamino)pyrimidin-4(3H)-one]: the IC50 in assay [1] (setting [5]) was 2400 nM; in assay [4] (setting [6]), > 31.6 µM; in assay [2], 1 nM.

With `c1cc(OC2CCC2)nc(-c2ccc3[nH]cc(-c4cncc(O[C@@H]5CCCNC5)n4)c3c2)c1` [Example 301], the IC50 in assay [1] (setting [5]) was determined as 2540 nM; in assay [2] it was 13 nM; in assay [3], 122 nM.

As for `c1cc2[nH]cc(-c3cncc(O[C@@H]4CCCNC4)n3)c2cc1-c1cncc(N2CCCC2)n1` [Example 302], the IC50 was 995 nM in assay [1] (setting [5]), 9 nM in assay [2] and 189 nM in assay [3].

As to `Cc1nccn1-c1cccc(-c2ccc3[nH]cc(-c4cncc(O[C@@H]5CCCNC5)n4)c3c2)n1` [Example 305], the IC50 was 754 nM in assay [1] (setting [5]), 7 nM in assay [2] and 127 nM in assay [3].

For the compound `Cc1ccn(-c2cccc(-c3ccc4[nH]cc(-c5cncc(O[C@@H]6CCCNC6)n5)c4c3)n2)n1` [Example 307], the IC50 turned out to be 1600 nM in assay [1] (setting [5]), 6 nM in assay [2] and 114 nM in assay [3].

Regarding `CC(C)n1cc(-c2ccc3[nH]cc(-c4cncc(O[C@@H]5CCCNC5)n4)c3c2)cn1` [Example 308, 5-(1-(1-methylethyl)-1H-pyrazol-4-yl)-3-(6-((3R)-3-piperidinyloxy)-2-pyrazinyl)-1H-indole], the IC50 is 160 nM in assay [1] (setting [5]), 8 nM in assay [2] and 76 nM in assay [3].

Turning to `COc1ccc(-c2ccc3[nH]cc(-c4cncc(O[C@@H]5CCCNC5)n4)c3c2)cn1` [Example 310], the values for the IC50 in assay [1] (setting [5]), in assay [2] and in assay [3] were 295 nM, 6 nM and 41 nM, respectively.

With `CC1(C)CC1c1ccc2[nH]cc(-c3cncc(O[C@@H]4CCCNC4)n3)c2c1` (stereo partly shown) [Example 312], the IC50 in assay [1] (setting [5]) was found to be 1310 nM; in assay [2] it was 9 nM; in assay [3] it was 31 nM.

Consider `COc1cccc(-c2ccc3[nH]cc(-c4cncc(O[C@@H]5CCCNC5)n4)c3c2)c1` [Example 320], for which the results for the IC50 in assay [1] (setting [5]), in assay [2] and in assay [3] were 592 nM, 6 nM and 30 nM, respectively.

`c1cc(OCC2CC2)ncc1-c1ccc2[nH]cc(-c3cncc(O[C@@H]4CCCNC4)n3)c2c1` [Example 323]: the IC50 in assay [1] (setting [5]) was 1310 nM; in assay [2], 8 nM; in assay [3], 67 nM.

`COc1c(C)cc(-c2ccc3[nH]cc(-c4cncc(O[C@@H]5CCCNC5)n4)c3c2)cc1C` [Example 331]: the IC50 in assay [1] (setting [5]) turned out to be 1280 nM; in assay [2] it was 8 nM; in assay [3], 111 nM.

For `c1cc2[nH]nc(-c3cncc(NC4CCNCC4)n3)c2cc1-c1cncc(C2CC2)n1` [Example 369, 6-(5-(6-cyclopropyl-2-pyrazinyl)-1H-indazol-3-yl)-N-4-piperidinyl-2-pyrazinamine], the IC50 came out at 83 nM in assay [1] (setting [5]), 3.7 µM in assay [4] (setting [6]) and 1 nM in assay [3].

As to `CC1(Oc2cncc(-c3n[nH]c4ccc(-c5c(F)cccc5F)cc34)n2)CCCNC1` (stereo not shown) [Example 417], the IC50 in assay [1] (setting [5]) was determined as 1480 nM; in assay [2], 15 nM; in assay [3], 335 nM.

With `NC1CCN(c2cncc(-c3n[nH]c4ccc(-c5cncc(C6CC6)n5)cc34)n2)CC1` [Example 503, 1-(6-(5-(6-cyclopropyl-2-pyrazinyl)-1H-indazol-3-yl)-2-pyrazinyl)-4-piperidinamine], the IC50 came out at 76 nM in assay [1] (setting [5]), 3.68 µM in assay [4] (setting [6]) and 2 nM in assay [3].

As for `NC1CCN(c2cncc(-c3n[nH]c4ccc(-c5cc6[nH]ccc6cn5)cc34)n2)CC1` [Example 504], the IC50 was found to be 7560 nM in assay [1] (setting [5]), 5 nM in assay [2] and 127 nM in assay [3].

`Nc1cncc(-c2ccc3[nH]nc(-c4cncc(N5CCC(N)CC5)n4)c3c2)n1` [Example 508]: the IC50 in assay [1] (setting [5]) was 1370 nM; in assay [4] (setting [6]) it was > 31.6 µM; in assay [3], 1 nM.

Turning to `NC1CCN(c2cncc(-c3n[nH]c4ccc(-c5cncc(NC6CC6)n5)cc34)n2)CC1` [Example 509], the results for the IC50 in assay [1] (setting [5]), in assay [4] (setting [6]) and in assay [3] were 51 nM, 4.23 µM and 6 nM, respectively.

Take `COC(=O)c1ccc2[nH]nc(-c3cncc(NC4CCNCC4)n3)c2c1` [Example 559]: the results for the IC50 in assay [1] (setting [5]), in assay [4] (setting [6]) and in assay [3] were 202 nM, 8.12 µM and 1 nM, respectively.

With `CC(C)OC(=O)c1ccc2[nH]nc(-c3cncc(NC4CCNCC4)n3)c2c1` [Example 560], the results for the IC50 in assay [1] (setting [5]), in assay [4] (setting [6]) and in assay [3] were 394 nM, 4.78 µM and 5 nM, respectively.

For the compound `COc1cc(-c2c[nH]c3ccc(-c4c(F)cccc4F)cc23)nc(N2CCOCC2)n1` [Example 562], the IC50 in assay [2] and in assay [3] was > 1000 nM throughout.

Regarding `COc1cc(N2CCC(N)CC2)nc(-c2c[nH]c3ccc(-c4c(F)cccc4F)cc23)n1` [Example 563], the IC50 in assay [2] was 87 nM; in assay [3] it was 143 nM.

Values taken from patent US9090593B2, “Bicyclic compounds as Pim inhibitors” (AMGEN INC., priority 2010, dated 2015).
